# pIC50: −log10 of the molar value. Values joined by “and” are separate entries in the source; they are usually repeats but may differ in a detail not shown here. Equal values may be shown once.
# Key:
# [1] = target: T1, human neutrophil elastase (Homo sapiens, UniProt P08246); assay: Neutrophil elastase chromogenic substrate hydrolysis assay; format: biochemical; details: pH 7.4
# T1 construct: purchased Elastin Products Company
# T1 sequence (P08246 30-247 limits assumed): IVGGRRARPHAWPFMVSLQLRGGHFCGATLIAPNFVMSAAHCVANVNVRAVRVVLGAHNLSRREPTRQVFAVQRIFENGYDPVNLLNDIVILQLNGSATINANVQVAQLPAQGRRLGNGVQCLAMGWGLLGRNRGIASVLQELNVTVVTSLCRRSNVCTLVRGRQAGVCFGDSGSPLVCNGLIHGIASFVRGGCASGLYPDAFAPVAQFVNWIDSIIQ
# Experimental: (§1) Direct inhibition of the human coagulation transglutaminase FXIIIa was also studied using a fluorescence-based transglutamination assay as reported in the literature.
# (§2) After 10 min incubation, 5 µL FXIa substrate (6.9 mM stock concentration) was rapidly added and the residual FXIa activity was measured from the initial rate of increase in absorbance at 405 nm. Assays were performed in similar fashion with trypsin and chymotrypsin. Stock concentrations used were 18.9 µg/mL (trypsin) and 22.7 mM (S-2222) for bovine trypsin assay (final volume was 200 µL) and 2 µg/mL (chymotrypsin) and 16.2 mM (N-Succinyl-Ala-Ala-Pro-Phe-p-nitroanilide) for bovine chymotrypsin assay (final volume was 200 µL). The buffer used for FXIa, trypsin, chymotrypsin assays was 50 mM Tris-HCl buffer, pH 7.4, containing 150 mM NaCl, 2.5 mM CaCl2, 0.1% PEG8000, and 0.02% Tween80. Neutrophil elastase inhibition assay was performed in a 96-well plate with a final volume of 100 µl with 0.125 M 4-(2-hydroxyethyl)-1-piperazineethanesulfonic acid (HEPES) buffer, pH 7.4 containing 0.125% Triton-X 100, as reported earlier. […] After incubation, 3 µL neutrophil elastase substrate (S-1384; 25 mM stock conc.) was rapidly added and the residual enzyme activity measured from the initial rate of increase in the absorbance at 405 nm.
# normal human plasma [2] = assay: APTT clotting assay, normal human plasma; format: biochemical; details: normal human plasma (text)
# Experimental: (§3) For the PT assay, thromboplastin-D was reconstituted according to the manufacturer’s directions and warmed to 37 °C. […] After incubation for 4 min at 37 °C, clotting was initiated by adding 100 μL of prewarmed 25 mM CaCl2 and the time to clotting was noted. […] To determine the in vitro effect on the APTT of deficient human plasmas, the APTT assay was repeated, using human plasmas deficient of factor VII (FVII), factor IX (FIX), FXI, or factor XII (FXII). […] The positive control used in APTT and PT assays was rivaroxaban, a clinically used FXa inhibitor. Under the conditions reported, rivaroxaban doubled the APTT and PT at concentrations of 0.123 ± 0.003 µM and 0.193 ± 0.043 µM, respectively.
# [3] = target: T2, guinea pig transglutaminase (UniProt P08587); assay: Guinea pig transglutaminase inhibition; format: biochemical; details: at concentrations as high as 500 µM
# T2 sequence (P08587 1-690): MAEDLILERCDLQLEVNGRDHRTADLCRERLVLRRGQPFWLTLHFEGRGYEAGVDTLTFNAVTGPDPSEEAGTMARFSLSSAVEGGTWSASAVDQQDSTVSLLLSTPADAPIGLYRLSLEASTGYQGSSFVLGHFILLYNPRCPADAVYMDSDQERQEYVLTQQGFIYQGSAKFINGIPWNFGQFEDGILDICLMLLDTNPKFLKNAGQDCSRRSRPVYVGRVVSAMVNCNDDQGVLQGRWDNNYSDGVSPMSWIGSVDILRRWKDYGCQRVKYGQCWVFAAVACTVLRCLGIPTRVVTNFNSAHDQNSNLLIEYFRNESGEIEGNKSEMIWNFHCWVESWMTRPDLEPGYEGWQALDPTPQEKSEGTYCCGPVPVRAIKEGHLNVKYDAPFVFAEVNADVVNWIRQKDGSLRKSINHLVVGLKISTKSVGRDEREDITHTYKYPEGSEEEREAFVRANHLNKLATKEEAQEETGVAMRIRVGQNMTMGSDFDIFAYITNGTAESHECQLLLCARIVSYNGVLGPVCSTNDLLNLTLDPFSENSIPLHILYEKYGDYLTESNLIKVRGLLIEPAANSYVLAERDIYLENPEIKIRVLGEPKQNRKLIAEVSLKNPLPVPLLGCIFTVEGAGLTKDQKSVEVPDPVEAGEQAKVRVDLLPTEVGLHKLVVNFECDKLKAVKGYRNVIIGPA
# human plasmin = human plasmin (Homo sapiens, UniProt P00747); assay: Plasmin chromogenic substrate hydrolysis assay; format: biochemical; details: Spectrozyme PL, pH 7.4, 37 °C
# Chain of human plasmin (P00747 581-810 limits assumed): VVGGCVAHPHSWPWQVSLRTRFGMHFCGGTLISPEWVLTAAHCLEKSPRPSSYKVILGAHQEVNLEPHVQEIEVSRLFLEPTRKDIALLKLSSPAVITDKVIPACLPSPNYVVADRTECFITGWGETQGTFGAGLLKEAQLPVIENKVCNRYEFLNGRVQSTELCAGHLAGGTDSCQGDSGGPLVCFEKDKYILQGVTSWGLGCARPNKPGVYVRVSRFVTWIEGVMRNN
# Chain of human plasmin (P00747 97-580 partner limits assumed): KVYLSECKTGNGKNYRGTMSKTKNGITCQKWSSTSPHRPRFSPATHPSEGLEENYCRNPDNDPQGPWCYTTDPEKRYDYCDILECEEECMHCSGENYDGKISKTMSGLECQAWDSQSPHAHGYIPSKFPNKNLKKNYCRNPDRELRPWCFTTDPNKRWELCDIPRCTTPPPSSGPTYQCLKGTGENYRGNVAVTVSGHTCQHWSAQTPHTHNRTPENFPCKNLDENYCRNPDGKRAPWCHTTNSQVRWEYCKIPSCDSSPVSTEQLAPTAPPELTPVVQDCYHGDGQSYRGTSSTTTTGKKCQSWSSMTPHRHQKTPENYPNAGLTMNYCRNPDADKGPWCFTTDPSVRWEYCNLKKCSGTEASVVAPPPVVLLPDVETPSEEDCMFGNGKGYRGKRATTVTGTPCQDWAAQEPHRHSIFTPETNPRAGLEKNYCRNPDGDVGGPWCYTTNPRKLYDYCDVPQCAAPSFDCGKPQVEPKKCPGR
# Experimental: Direct inhibition of human FXa and α-thrombin of the common coagulation pathway and human plasmin of the fibrinolysis pathway were measured using the corresponding chromogenic substrate hydrolysis assays at 37 °C and pH 7.4, as reported earlier using the 96-microplate platform. […] After 10 min incubation, 5 µL Spectrozyme FXa (5 mM stock conc.) was rapidly added and the residual activity of FXa was measured from the initial rate of increase in absorbance at 405 nm. […] The concentration vs effect curve was constructed using logistic Equation (1) from which the potency (IC50) and efficacy (ΔY) of inhibition were also obtained.
# For thrombin and plasmin, the assays were performed using substrates appropriate for each enzyme (Spectrozyme TH for thrombin and Spectrozyme PL for plasmin) under conditions closest to the physiological condition. The KM of the substrate for its enzyme was used to identify the concentration of the substrate to be used for inhibition studies. […] After 10 min incubation, 5 µL Spectrozyme TH (1.0 mM stock conc.) was rapidly added and the residual activity of thrombin was measured from the initial rate of increase in absorbance at 405 nm. […] After 10 min incubation, 5 µL Spectrozyme PL (1.0 mM stock conc.) was rapidly added and the residual activity of plasmin was measured from the initial rate of increase in absorbance at 405 nm. […] Buffer for assays was 20–50 mM Tris-HCl buffer, pH 7.4, containing 100–150 mM NaCl, 2.5 mM CaCl2, 0.1% PEG8000, and 0.02% Tween80. All assays were performed three times.
# [4] = cited from earlier work
# FXIa = target: T3, FXIa (Homo sapiens, UniProt P03951); assay: FXIa chromogenic substrate hydrolysis assay; format: biochemical
# T3 construct: purchased Haematologic Technologies, Inc; host or cells: plasma
# T3 sequence (P03951 388-625 limits assumed): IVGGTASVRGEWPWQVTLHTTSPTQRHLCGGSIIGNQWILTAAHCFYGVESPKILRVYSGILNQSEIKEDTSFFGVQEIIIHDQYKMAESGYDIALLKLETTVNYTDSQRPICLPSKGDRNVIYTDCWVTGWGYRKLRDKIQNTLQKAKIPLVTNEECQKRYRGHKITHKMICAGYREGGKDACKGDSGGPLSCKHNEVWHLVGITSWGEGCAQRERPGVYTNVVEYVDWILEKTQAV
# T3 sequence (P03951 19-387 partner limits assumed): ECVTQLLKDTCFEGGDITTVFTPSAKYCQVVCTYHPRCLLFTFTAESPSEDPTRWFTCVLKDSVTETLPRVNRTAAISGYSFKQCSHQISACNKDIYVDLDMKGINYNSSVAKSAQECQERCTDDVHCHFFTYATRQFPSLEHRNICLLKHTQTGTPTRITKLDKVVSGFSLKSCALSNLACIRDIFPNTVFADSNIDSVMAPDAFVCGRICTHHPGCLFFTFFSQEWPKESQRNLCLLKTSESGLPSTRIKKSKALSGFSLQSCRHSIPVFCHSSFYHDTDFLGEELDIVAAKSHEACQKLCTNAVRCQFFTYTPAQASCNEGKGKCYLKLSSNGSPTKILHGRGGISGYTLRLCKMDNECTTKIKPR
# Experimental: as §1, §2
# normal human plasma [5] = assay: TT clotting assay, normal human plasma; format: biochemical; details: for concentration to double the TT: normal human plasma (text)
# [6] = test system: human plasma deficient of FVII; assay: APTT clotting assay, FVII-deficient plasma; format: biochemical
# Experimental: as §3
# [7] = parenteral administration, patients
structure (smiles),measurement,setting,value
"N=C(N)c1ccc(OCCCCCOc2ccc(C(=N)N)cc2)cc1 [pentamidine isethionate, 4,4′-(pentane-1,5-diylbis(oxy))-dibenzimidamide]",pIC50,[1],< 4.00
same,concentration to double the APTT,normal human plasma [2],27.88 ± 2.99 µM
same,concentration to double the APTT,normal human plasma [2]; listed as pentamidine,lower than 50 µM
same,inhibition of guinea pig transglutaminase,[3],did not inhibit
same,HS,human plasmin,1.1 ± 0.1
same,pIC50,human plasmin,~5.08 and 5.08
same,∆Y (efficacy),human plasmin,98.0 ± 3.3%
same,∆Y (efficacy),human plasmin; listed as pentamidine,~ 100%
same,"anemia, incidence",[4]; [7],1%
same,"leukopenia, incidence",[4]; [7],10%
same,"thrombocytopenia, incidence",[4]; [7],3%
same,"blood clot formation, share of treated patients",[4]; treated patients,less than 1%
same,inhibition at 100 µM,FXIa; at 100 µM (highest concentration tested),< 40%
same,pIC50,FXIa; pH 7.4,< 4.00
same,"TTEC2×, concentration to double clotting time","normal human plasma [5]; TT assay, normal human plasma",158.17 ± 30.87 µm
same,concentration to double the TT,normal human plasma [5],158.17 µM and 158.17 ± 30.87 µM
same,concentration to double the TT,normal human plasma [5]; listed as pentamidine,> 150 µM
same,"APTTEC2×, concentration to double clotting time",[6],26.71 ± 0.50 µm
